Test results published in patent US12186332B2, “Methods for overcoming WNT/beta-catenin anti-cancer resistance in leukemia stem cells” (STOWERS INSTITUTE FOR MEDICAL RESEARCH, priority 2019, dated 2025).

System: immune checkpoint (IC) and Wnt target gene loci
Experiment: ATAC-seq chromatin accessibility in LSCs and blast cells
Assay type: in vivo, mouse
Conditions: [Low]DXR
Text: Inhibitory IC gene loci are highlighted (blue dots).
Cells were sorted from BM pooled from 20 leukemia mice treated with [Low]DXR and 8 leukemia mice treated with vehicle control at 15-30 k/replicate.
FIG. 4M is metagene analysis of LSCs showing chromatin accessibility near the transcriptional start site (TSS) in immune-checkpoint gene loci (listed) compared with all loci showing significant changes. Gene synonyms are listed here in parentheses Hvem (Tnfrsf14), Gal-9 (Lgals9), Ox401 (Tnfsf4), Tnfsf7 (Cd70), B7-H2 (Icosl), B7-H3 (Cd276), B7-H4 (Vtcn1), Pd1 (Pdcd1), Tnfrsf7 (Cd27), Tim3 (Havcr2), Ox40 (Tnfrsf4).
Cells were sorted from BM pooled from 20 leukemia mice treated with [Low]DXR and 8 leukemia mice treated with vehicle control. Experiment was repeated 1 time with similar results.
ATAC-seq was performed in LSCs and blast cells following the protocol described in Buenrostro et al., ATAC-seq: A Method for Assaying Chromatin Accessibility Genome-Wide. Curr Protoc Mol Biol. 2015 Jan. 5,109:21.29.1-9, the entirety of which is incorporated herein by reference. Cells were sorted from BM pooled from 20 leukemia mice treated with [Low]DXR and 8 leukemia mice treated with vehicle control at 15-30 k/replicate.
Collected cells were subject to transposition reaction and purification. In brief, 30,000 FACS-sorted blast cells were washed using 50 μl cold 1×PBS and centrifuged at 500 g for 5 min in a pre-chilled (4° C.) fixed-angle centrifuge. Cells were lysed using cold lysis buffer (10 mM Tris-HCl, pH 7.4, 10 mM NaCl, 3 mM MgCl2 and 0.1% IGEPAL CA-630). Following the lysis, the pellet was resuspended in the transposase reaction mix. The transposition reaction mix contains 25 μl TD (2× reaction buffer), 2.5 μl TDE1 (Nextera Tn5 Transposase) and 22.5 μl Nuclease Free H2O. Resuspended nuclei in the transposition reaction mix. Incubated the transposition reaction at 37° C. for 30 min. Immediately following transposition, purification was performed by using a Qiagen MinElute PCR Purification Kit. Eluted transposed DNA in 10 μl Elution Buffer (10 mM Tris buffer, pH 8). Transposed DNA fragments were amplified by PCR. The PCR mixture contains 10 μl transposed DNA, 10 μl Nuclease Free H2O, 2.5 μl 25 μM Custom Nextera PCR Primer 1, 2.5 μl 25 μM Custom Nextera PCR Primer 2 (Contains Barcode) and 25 μl NEBNext High-Fidelity 2×PCR Master Mix. The thermal cycle is as follows: 1 cycle of 72° C. for 5 min, 98° C. for 30 sec, 5 cycles of 98° C. for 10 sec, 63° C. for 30 sec, 72° C. for 1 min. To reduce GC and size bias in PCR, the appropriate number of PCR cycles is determined using qPCR. To run a qPCR side reaction, combine the following in qPCR compatible consumables: 5 μl of previously PCR amplified DNA, 4.41 μl Nuclease Free H2O, 0.25 μl 25 μM Customized Nextera PCR Primer 1, 0.25 μl 25 μM Customized Nextera PCR Primer 2, 0.09 μl 100×SYBR Green I, 5 μl NEBNext High-Fidelity 2×PCR Master Mix. Using a qPCR instrument, cycle as follows: 1 cycle of 98° C. for 30 sec, 20 cycles of 98° C. for 10 sec, 63° C. for 30 sec, 72° C. for 1 min. To calculate the additional number of cycles needed, plot linear Rn versus cycle and determine the cycle number that corresponds to […] fluorescent intensity. Run the remaining 45 μl PCR reaction to the cycle number determined by qPCR. Cycle as follows: 1 cycle of 98° C. for 30 sec, N cycles (determined using qPCR) of 98° C. for 10 sec, 63° C. for 30 sec, 72° C. for 1 min.

`COc1cccc2c1C(=O)c1c(O)c3c(c(O)c1C2=O)C[C@@](O)(C(=O)CO)C[C@@H]3O[C@H]1C[C@H](N)[C@H](O)[C@H](C)O1` [DXR, doxorubicin] was tested. Which “IC loci with increased accessibility” value (LSCs) did it give?
Its value is 3 loci.

What about the “IC loci with reduced accessibility” value (LSCs) of the same molecule?
Its value is 13 loci.

And the “IC loci with increased accessibility” value (blast cells)?
The value was 10.

What about the “IC loci with reduced accessibility” value (blast cells) of the same molecule?
The value was 4.

And the “accessibility in the promoter regions of Wnt target genes in LSCs” value (not in blast cells)?
Its value is “reduced”.
